Like-named read-outs stand apart in the source and are kept apart here.
How the values were obtained:
Format in all cases: biochemical
[1] = target: Human pancreatic cholesterol esterase; experiment: Inhibition of cholesteryl 14C-oleate hydrolysis by cholesterol esterase; settings: for IC50 cholesterol esterase inhibition: 37° C., fifteen minutes, pH 7.5
[2] = target: human 100 kDa cholesterol esterase; experiment: Inhibition of triolein hydrolysis by cholesterol esterase; settings: table 3; triolein used instead of cholesterol oleate
Method: (§1) Alginic acid from Macrocystis pyrifera (kelp) was dissolved in water at a concentration of 1 mg/ml. This stock solution was used to prepare various polysaccharide concentrations down to 10^-5 mg/ml. Human pancreatic cholesterol esterase was purified as described by Bosner et al., Proc Nat'l. Acad. Sci., 85, 7438 (1988). To measure cholesterol esterase inhibition by alginic acid, 50 μl of cholesterol esterase (10 μg/ml). 75 μl of phosphatidylcholine vesicles containing cholesteryl ^14 C-oleate (1 mM 2,000 CPM/nmole). 25 μl of 100 mM taurocholate, 120 μl of 150 mM Tris. pH 7.5 and 30 μl of test alginic acid solution were incubated at 37° C. for fifteen minutes. The assay was quenched by placing the reaction vessels in a 4° C. ice bath and by adding 0.6 ml of 0.3 N NaOH and 3 ml of benzene/chloroform/methanol (1 0/1.2/0 5). The quenched reactions were vortexed for 30 seconds, centrifuged at 3,000 g for 15 minutes and 1 ml of the upper aqueous phase was added to 7 ml of Aquasol-2 (DuPont) with 0.025 ml of 6 N HCl. These mixtures were vortexed for one minute and counted for ^14 C-oleate The counts were compared to a sample which contained cholesterol esterase but no alginic acid to determine the percentage of inhibition.
(The same assay procedure was used as described in Part I, only triolein was used instead of cholesterol oleate.) As shown in the table below, the IC50 for inhibition of triolein hydrolysis is nearly the same as that for cholesteryl oleate hydrolysis.

[3] = test system: cholesterol esterase; experiment: Cholesterol esterase inhibition by water extract of baked muffin (stability under baking conditions); settings: qualitative statement
Method: as §1
The sulfated polysaccharides described here retain their inhibitory activity for prolonged periods at elevated temperatures. […]

[4] = table 2, summary of sulfated polysaccharides, read-out: IC50
[5] = table 3, cholesteryl oleate hydrolysis, read-out: IC50 (nM) Cholesteryl Oleate
[6] = cholesteryl 14C-oleate substrate
[7] = cholesteryl 14C-oleate substrate, molar value assumes a molecular weight (alginic acid 240 kDa, pectin 20 kDa, chitin 300 kDa, cellulose sulfate 500 kDa), read-out: IC50 cholesterol esterase inhibition

Substance	IC50 [1, 4] [nM]	IC50 [1, 5] [nM]	IC50 [2] [nM]	IC50 cholesterol esterase inhibition [1, 6] [µg/mL]	IC50 [1, 7] [nM]	Enhancement Factor ([1]; table 1, enhancement of inhibition relative to native alginic acid (fold))	Retention of inhibitory activity at elevated temperatures / stability under baking conditions (in words) [3]	Inhibition of cholesterol esterase (in words) ([1]; qualitative statement)
Chitin Sulfate	0.06	0.06	0.14	–	–	–	–	–
Alginic acid [reference compound]	–	20	42	4	20	1.0	–	–
pectin [reference compound]	–	–	–	–	–	–	–	does not inhibit cholesterol esterase
Chitosan Sulfate	0.03	0.03	0.16	0.015	0.03	–	–	–

Continued, values first:

IC50 [1, 4] [nM]	IC50 [1, 5] [nM]	IC50 [2] [nM]	IC50 cholesterol esterase inhibition [1, 6] [µg/mL]	IC50 [1, 7] [nM]	Enhancement Factor ([1]; table 1, enhancement of inhibition relative to native alginic acid (fold))	Retention of inhibitory activity at elevated temperatures / stability under baking conditions (in words) [3]	Inhibition of cholesterol esterase (in words) ([1]; qualitative statement)	Substance
0.02	0.02	–	–	0.02	–	–	–	Dextran Sulfate
0.02	0.02	0.06	–	0.02	–	stable under baking conditions	–	Cellulose Sulfate
